From US20230095836A1, “SUBSTITUTED 5,6-DIPHENYL-3(2H)-PYRIDAZINONES FOR USE AS FUNGICIDES” (FMC Corporation, priority 2020, published 2023)

Experiments:
Type in all cases: in vivo
Zymoseptoria tritici = test: Test A: test solution sprayed on wheat seedlings, inoculated next day with Zymoseptoria tritici (wheat leaf blotch); disease rating (100 = 100% disease control, 0 = no control; dash = not tested)
In short: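 Preventive spray test: compound applied to run-off one day before spore inoculation of wheat seedlings. Incubation was 48 h saturated humidity at 24° C followed by 17 days at 20° C. Disease then scored 0–100 as % control versus untreated plants.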

[1] = system: Puccinia recondita f. sp. tritici; test: Test B: test solution sprayed on wheat seedlings, inoculated next day with Puccinia recondita f. sp. tritici (wheat leaf rust); disease rating (100 = 100% disease control, 0 = no control; dash = not tested)
Source text: The resulting test suspensions were then used in Tests A-F. The test solution was sprayed to the point of run-off on wheat seedlings. […] A rating of 100 indicates 100% disease control and a rating of 0 indicates no disease control (relative to the controls). A dash (—) indicates the compound was not tested.

[2] = system: Blumeria graminis f. sp. tritici; test: Test C: test suspension sprayed on wheat seedlings, inoculated next day with Blumeria graminis f. sp. tritici (wheat powdery mildew); visual disease rating (100 = 100% disease control, 0 = no control; dash = not tested)
In short: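 Visual ratings of disease control (0–100, relative to controls) were made 8 days after inoculation with B. graminis f. sp. tritici spore dust. Plants were held at 20 °C. Compound was applied as a spray to run-off one day before inoculation.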

Phakopsora pachyrhizi = test: Test D: test solution sprayed on soybean seedlings, inoculated next day with Phakopsora pachyrhizi (Asian soybean rust); visual disease rating (100 = 100% disease control, 0 = no control; dash = not tested)
In short: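 Preventive spray test: soybean seedlings treated to run-off with ppm-level suspensions (acetone/water 50/50, 250 ppm PEG400), spore-inoculated one day later. Held 24 h at 22 °C in saturated air, then 8 days at 22 °C; disease control scored visually versus untreated plants, 0 = none, 100 = complete.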

Botrytis cinerea = test: Test E: test suspension sprayed on tomato seedlings, inoculated next day with Botrytis cinerea (tomato Botrytis); visual disease rating (100 = 100% disease control, 0 = no control; dash = not tested)
In short: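 Spores were applied one day after spraying the seedlings to run-off. Incubation was 48 h saturated at 20° C, then 3 days in a 24° C growth chamber. Visual ratings, relative to untreated controls, run from 0 (no control) to 100 (complete control).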

Alternaria solani = test: Test F: test suspension sprayed on tomato seedlings, inoculated next day with Alternaria solani (tomato early blight); visual disease rating (100 = 100% disease control, 0 = no control; dash = not tested)
In short: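 Visual ratings of % disease control versus controls were made after inoculated plants spent 48 h at 27° C. in saturated air plus 3 days at 20° C. The compound suspension had been sprayed to run-off one day before spore inoculation.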

| Compound | Test A disease control rating (Zymoseptoria tritici; 50 ppm) [%] | Test B disease control rating ([1]; 50 ppm) [%] | Test C disease control rating ([2]; 50 ppm) [%] | Test D disease control rating (Phakopsora pachyrhizi; 50 ppm) [%] | Test E disease control rating (Botrytis cinerea; 50 ppm) [%] | Test F disease control rating (Alternaria solani; 50 ppm) [%] | also measured |
| --- | --- | --- | --- | --- | --- | --- | --- |
| Cn1nc(-c2ccc(F)cc2Br)c(-c2ccc(F)cc2Cl)c(Cl)c1=O [Compound 156] | 99 | 100 | 99 | 96 | 100 | 87 | – |
| COc1cccc(-c2nn(C)c(=O)c(OC)c2-c2ccc(F)cc2Cl)c1Cl [Compound 146] | 100 | 100 | 100 | 96 | 98 | 99 | – |
| CCn1nc(-c2cc(OC)cc(OC)c2)c(-c2ccc(F)cc2Cl)cc1=O [Compound 26] | – | – | – | – | – | – | Test A disease control rating (Zymoseptoria tritici; 250 ppm): 12%; Test B disease control rating ([1]; 250 ppm): 55%; Test C disease control rating ([2]; 250 ppm): 96%; Test D disease control rating (Phakopsora pachyrhizi; 250 ppm): 0%; Test E disease control rating (Botrytis cinerea; 250 ppm): 99%; Test F disease control rating (Alternaria solani; 250 ppm): 0% |
| COc1cc(F)c(F)c(-c2nn(C)c(=O)c(C)c2-c2ccc(F)cc2Cl)c1 [Compound 137] | 100 | 100 | 100 | 100 | 66 | 100 | – |
| CCn1nc(-c2cc(OC)cc(OC)c2Cl)c(-c2c(F)cccc2F)c(C)c1=O [Compound 22] | 100 | 100 | 98 | 98 | 100 | 79 | – |
| COc1c(-c2ccc(F)cc2Cl)c(-c2cc(F)ccc2Cl)nn(C)c1=O [Compound 120] | 100 | 100 | 99 | 77 | 33 | 0 | – |
| CCn1nc(-c2cc(OC)cc(OC)c2Br)c(-c2c(F)cccc2F)cc1=O [Compound 17] | 98 | 99 | 94 | 73 | 99 | 0 | – |
| COc1c(-c2ccc(F)cc2Cl)c(-c2cc(F)ccc2Br)nn(C)c1=O [Compound 121] | 100 | 100 | 99 | 72 | 99 | 99 | – |
| CCn1nc(-c2cc(OC)cc(OC)c2Cl)c(-c2ccc(F)cc2Cl)cc1=O [Compound 202] | 99 | 68 | 72 | 44 | 99 | 0 | – |
| Cn1nc(-c2ccccc2F)c(-c2ccc(F)cc2Cl)c(Cl)c1=O [Compound 72] | 100 | 99 | 99 | 75 | 98 | 99 | – |
| COc1cc(C#N)cc(-c2nn(C)c(=O)cc2-c2c(F)cccc2F)c1 [Compound 71] | 8 | 0 | 0 | 0 | 16 | 0 | – |
| Cn1nc(-c2ccccc2Cl)c(-c2ccc(F)cc2Cl)c(Cl)c1=O [Compound 73] | 100 | 100 | 99 | 97 | 99 | 99 | – |
| COc1cc(OC)c(Cl)c(-c2nn(C)c(=O)c(C)c2-c2ccc(F)cc2Cl)c1Cl [Compound 47] | 52 | 68 | 43 | 0 | 91 | 0 | – |
| COc1cc(OC)c(Cl)c(-c2nn(C)c(=O)c(C)c2-c2ccc(F)cc2Cl)c1Cl [Compound 169] | 37 | 68 | 43 | 0 | 93 | 0 | – |
| COc1ccc(Cl)c(-c2nn(C)c(=O)cc2-c2ccc(F)cc2Cl)c1 [Compound 117] | 99 | 98 | 93 | 47 | 99 | 0 | – |
| COc1ccc(Cl)c(-c2nn(C)c(=O)c(Cl)c2-c2ccc(F)cc2Br)c1 [Compound 97] | 100 | 100 | 100 | 100 | 96 | 99 | – |
| COc1cc(F)c(Cl)c(-c2nn(C)c(=O)cc2-c2c(F)cccc2F)c1 [Compound 205] | 100 | 99 | 98 | 71 | 99 | 99 | – |
| COc1ccc(F)c(-c2nn(C)c(=O)c(C)c2-c2ccc(F)cc2Cl)c1 [Compound 138] | 100 | 100 | 100 | 100 | 93 | 100 | – |
| CCn1nc(-c2cc(OC)cc(OC)c2Br)c(-c2c(F)cccc2F)c(C#N)c1=O [Compound 100] | 100 | 100 | 99 | 100 | 99 | 93 | – |
| CCn1nc(-c2cc(OC)cc(OC)c2Cl)c(-c2c(F)cccc2F)cc1=O [Compound 8] | 100 | 96 | 97 | 75 | 99 | 0 | – |
| Cn1nc(-c2ccc(F)cc2Cl)c(-c2ccc(F)cc2Cl)c(CO)c1=O [Compound 172] | – | – | – | – | – | – | Test A disease control rating (Zymoseptoria tritici; 250 ppm): 79%; Test B disease control rating ([1]; 250 ppm): 92%; Test C disease control rating ([2]; 250 ppm): 87%; Test D disease control rating (Phakopsora pachyrhizi; 250 ppm): 78%; Test E disease control rating (Botrytis cinerea; 250 ppm): 83%; Test F disease control rating (Alternaria solani; 250 ppm): 0% |
| Cc1ccc(Cl)c(-c2nn(C)c(=O)c(C)c2-c2ccc(F)cc2Cl)c1 [Compound 136, 5-(2-chloro-4-fluorophenyl)-6-(2-chloro-5-methylphenyl)-2,4-dimethyl-3(2H)-pyridazinone] | – | – | – | – | – | – | pest or weed control at 50 ppm (Zymoseptoria tritici; 50 ppm): 99%; pest or weed control at 50 ppm ([1]; 50 ppm): 100%; pest or weed control at 50 ppm ([2]; 50 ppm): 100%; pest or weed control at 50 ppm (Phakopsora pachyrhizi; 50 ppm): 97%; pest or weed control at 50 ppm (Botrytis cinerea; 50 ppm): 95%; pest or weed control at 50 ppm (Alternaria solani; 50 ppm): 40% |
